From patent US12509734B2, “Systems and methods to assess microbiomes and treatments thereof” (priority 2013, dated 2025)

System: vaginal microbiota
Assay: 16S-C&S (broad-spectrum clone and sequence) with and without LB-blocking of acute BV and post-tinidazole lavages (Tables 3C, 3D)
Format: in vivo, human
Description: Amplicon cloning. Amplicon cloning. Broad-spectrum PCR targets were amplified for varying cycle numbers, typically Cp plus 1 or 2 cycles to achieve a “just visible” product on an agarose ethidium-bromide gel. Amplicons derived from PB primers were sequenced directly with the rationale that any species present at 5-10× others amplified by the same PB primer would generate a single, readable sequence; amplicons from PB primers that were unreadable as uncloned amplicons were cloned after nested PCR. They were amplified to maximum fluorescence or maximum cycles for that primer. Products were cleaned by ultrafiltration with the MONTAGE™ PCR kit UFC7PCR50 (Millipore) or QIAQUICK® PCR purification kit (QIAGEN®). One to three microliters of the 20 μl purified product was ligated into pGEM-T Easy vector using the PGEM-T™ Easy Ligation Kit (Promega) according to the manufacturer's specifications. The ligation reaction was carried out for from 4 hours to overnight at 4° C. Forty microliters of E. coli cells (strain XL1-BLUE®, Stratagene) were electroporated using a BioRad GenePulser and Pulse Controller (set at 2.5 kV, 25 μFD capacitance, and 200 ohms resistance) with 1 μl of the ligation, allowed to recover in LB broth 1 h at 37° C., then plated onto LB agar plus 100 μg/ml ampicillin with 0.1 mM IPTG and 20 μg/ml X-gal and grown overnight at 37° C. White colonies and a few blue control colonies were picked from the plates into 100 μl of 15% glycerol or TE, incubated at 94° C. for 5 m; 2 μl of this was amplified in 8 μl of reaction buffer as described, using primers that flank the cloning site in the vector (pUC-F […] (SEQ ID NO: 88), pUC-R […] (SEQ ID NO: 89); 95° C. (1 m), [95° C. (30 s), 45° C. (30 s), 72° C. (30 s)] for 40 cycles, 72° C. (5 m). Extension times for cloned amplicons from PB primers were adjusted as appropriate for each amplicon size according to Tables 3A-3D. An aliquot of each amplicon was tested by agarose gel electrophoresis.
Sequencing and analysis. Full length amplicons (5 μl) were enzymatically cleaned using a 5 μl solution of 0.1 units of NTPhos thermolabile phosphatase and 1 unit of Exonuclease I (Epicentre Biotechnologies), in 20 mM Tris pH 8.3, 50 mM KCl and 10 mM MgCl2 (1×PCR reaction buffer, Invitrogen), incubated at 37° C. for 15 m, then inactivated at 80° C. for 15 m, and used for sequencing. Mini-libraries were constructed from amplicons with co-dominant species (which generate mixed template reads when uncloned); 17 mini-libraries each averaging 11 sequences were sequenced. Enzymatically cleaned amplicons were sequenced with the same primers used for amplification, or T7 for cloned amplicons (Functional Biosciences, Inc.). Sequences were uploaded to Ribosomal Database Project II using the Pipeline function in MyRDP for trimming, quality scoring, alignment, and identification. Only base calls with PHRED quality scores (Q) above 20 were considered. A small number of high quality sequences were rejected by the website as non-ribosomal and were not considered further in this analysis. Aligned sequences, their closest hits via SeqMatch, and manually selected reference species, were downloaded from myRDP, manually trimmed to common 5′ and 3′ ends, and analyzed with Molecular Evolutionary Genetics Analysis (MEGA4 and MEGA5) software. From this, trees were constructed using the bootstrapped Neighbor-Joining method or the Maximum Composite Likelihood method, and used for species identification.
Compositions determined by 16S-C&S were simply tallies of sequences in each taxa, defined here as those with >97% identity. These tallies were adjusted in libraries from LB-blocked PCR with a correction factor. To determine this factor, the titers of Gardnerella and LB were independently determined with and without blocking by PB-qPCR. Their ratio in the unblocked sample (7×10^−6) was increased in the blocked sample to 0.09, indicating an enrichment of 0.09/7×10^−6=12,600. […]

[1] = post tinidazole lavage, 16S-C&S, Lactobacillaceae clones
[2] = post tinidazole lavage, 16S-C&S, target Bacteroidaceae/uc Prevotellaceae

CCS(=O)(=O)CCn1c([N+](=O)[O-])cnc1C [tinidazole]
non-LB share of isolates in post-tinidazole sample (FIG. 3, B2, LB-blocked): 0.003% | ID Clones: L. iners [1]: L. iners 83%, L. | ID Clones: L. jensenii [1]: jensenii 17%, | Cells/sample (post tinidazole lavage, 16S-C&S, target Actinobacteria: Actinobacteridae): 1.3E+06 Cells/sample | Cells/sample (post tinidazole lavage, 16S-C&S, target Alpha-Proteobacteria): 3.4E+04 Cells/sample | Cells/sample [2]: 3.4E+04 Cells/sample | ID Clones [2]: Bacteroides sp. | Cells/sample (post tinidazole lavage, 16S-C&S, target Beta-Proteobacteria): 3.4E+04 Cells/sample | Cells/sample (post tinidazole lavage, 16S-C&S, target Broad-spectrum): 8.4E+09 Cells/sample | Cells/sample (post tinidazole lavage, 16S-C&S, target Clostridiales Incertae Sedis XI): 0 Cells/sample | Cells/sample (post tinidazole lavage, 16S-C&S, target Clostridiales Incertae Sedis XII): 0 Cells/sample | Cells/sample (post tinidazole lavage, 16S-C&S, target Coriobacteridae): 0 Cells/sample | Cells/sample (post tinidazole lavage, 16S-C&S, target Cross-family Clostridia): 0 Cells/sample | Cells/sample (post tinidazole lavage, 16S-C&S, target Enterobacteriales, Pasteurellales, Pseudomonadaceae): 3.4E+05 Cells/sample | Cells/sample (post tinidazole lavage, 16S-C&S, target Epsilon-Proteobacteria): 3.4E+04 Cells/sample | Cells/sample (post tinidazole lavage, 16S-C&S, target Firmicute: Lactobacillaceae): 8.4E+09 Cells/sample | Cells/sample (post tinidazole lavage, 16S-C&S, target Fusobacterium): 0 Cells/sample | Cells/sample (post tinidazole lavage, 16S-C&S, target Lachnospiracea uc & incertae sedis Clostridium IVa): 0 Cells/sample | Cells/sample (post tinidazole lavage, 16S-C&S, target Megasphaera/Dialister/Veillonella): 0 Cells/sample | Cells/sample (post tinidazole lavage, 16S-C&S, target Mobiluncus): 0 Cells/sample | Cells/sample (post tinidazole lavage, 16S-C&S, target Mycoplasmatales): 0 Cells/sample | Cells/sample (post tinidazole lavage, 16S-C&S, target Peptostreptococcaceae): 0 Cells/sample | Cells/sample (post tinidazole lavage, 16S-C&S, target Staphylococcus): 0 Cells/sample | Cells/sample (post tinidazole lavage, 16S-C&S, target Streptococcus): 0 Cells/sample | Cells/sample (post tinidazole lavage, 16S-C&S, target uc Clostridiales (BVAB283 subset)): 0 Cells/sample
